Assay results taken from US6677329B1, “Non-aromatic estrogenic steroids with a hydrocarbon substituent in position 11” (Akzo Nobel N V., priority 1999, dated 2004).

Assays:
[1] = molecular target: T1, human estrogen receptor α (hERα) (Homo sapiens, UniProt P03372); test: transactivation assay in recombinant CHO cells (rat oxytocin promoter, luciferase reporter), α; assay type: cell-based; conditions: potency ratio, in percentage of the action of the reference compound in the assay
T1 construct: expressed in transfected cells; host or cells: CHO cells, line CHO-ERRO 2B1-1E9, with rat oxytocin promoter and luciferase reporter
T1 sequence (P03372 1-595): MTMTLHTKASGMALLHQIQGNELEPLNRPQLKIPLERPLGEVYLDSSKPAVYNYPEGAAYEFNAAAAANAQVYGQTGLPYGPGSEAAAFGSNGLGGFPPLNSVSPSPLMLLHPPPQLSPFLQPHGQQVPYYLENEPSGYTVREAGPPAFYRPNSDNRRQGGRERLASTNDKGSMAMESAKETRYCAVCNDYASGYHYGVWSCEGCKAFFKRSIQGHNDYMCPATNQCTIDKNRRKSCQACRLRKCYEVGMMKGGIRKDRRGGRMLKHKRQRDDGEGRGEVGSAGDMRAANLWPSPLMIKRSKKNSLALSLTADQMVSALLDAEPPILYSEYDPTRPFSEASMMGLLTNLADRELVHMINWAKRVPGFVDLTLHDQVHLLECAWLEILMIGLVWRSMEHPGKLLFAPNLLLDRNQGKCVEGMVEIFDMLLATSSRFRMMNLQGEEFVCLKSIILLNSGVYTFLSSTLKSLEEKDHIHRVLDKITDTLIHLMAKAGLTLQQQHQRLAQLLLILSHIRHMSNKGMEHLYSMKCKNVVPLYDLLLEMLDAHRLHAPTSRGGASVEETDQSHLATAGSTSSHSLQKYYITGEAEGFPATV
Protocol: (§1) Compounds are tested for their estrogen receptor activity in a binding assay and in a transactivation assay.
(§2) The antiestrogenic activity of compounds is determined in an in vitro bioassay with recombinant Chinese hamster ovary (CHO) cells stably co-transfected with the human estrogen receptor α (hERα) or β receptor (hERβ), the rat oxytocin promoter (RO) and the luciferase reporter gene (LUC). The antiestrogenic activity (potency ratio) of a test compound to inhibit the transactivation of the enzyme luciferase mediated via the estrogen receptor by the estrogen Org 2317 (estradiol, 1, 3, 5 (10)-estratriene-3,17β-diol) is compared with the standard Org 34790 (ICI 164.384; (7α,17β)-N-butyl-3,17-dihydroxy-N-methylestra-1,3,5 (10)-triene-7-undecanamide).
(§3) Test medium: Intact recombinant CHO cells stably co-transfected with the human estrogen receptor, the rat oxytocin promoter and the luciferase reporter gene. The cell line has been produced within the Department of Biotechnology and Biochemistry (BBC) (N.V. Organon) and is known under the name CHO-ERRO 2B1-1E9.
(§4) The data are expressed in percentage of the action of the reference compound in the assay

[2] = molecular target: T1, human estrogen receptor α (hERα); test: competitive binding to cytoplasmic human estrogen receptor from recombinant CHO cells (α-binding); conditions: relative affinity (potency ratio), in percentage of the action of the reference compound in the assay; cytosol of recombinant CHO cells
Protocol: (§5) Compounds are tested for their estrogen receptor activity in a binding assay and in a transactivation assay. Determination of competitive binding to cytoplasmic human estrogen receptor from rec.CHO cells is used to estimate the relative affinity (potency ratio) of a test compound for estrogen receptors present in the cytosol of recombinant Chinese hamster ovary (CHO) cells, stably transfected with the human estrogen receptor, as compared with estradiol (E2). Cytosol prepared from recombinant CHO cells, stably transfected with the human estrogen receptor. The cell line has been made within the Department of Biotechnology and Biochemistry (BBC) (N.V. Organon) and is known under the name CHO-ER (2B1). Reference compounds are ethinylestradiol and estriol. The data are expressed in percentage of the action of the reference compound in the assay

[3] = molecular target: T2, human estrogen β receptor (hERβ) (Homo sapiens, UniProt Q92731); test: competitive binding to cytoplasmic human estrogen receptor from recombinant CHO cells (β-binding); conditions: relative affinity (potency ratio), in percentage of the action of the reference compound in the assay; cytosol of recombinant CHO cells
T2 construct: expressed in transfected cells; host or cells: CHO cells with rat oxytocin promoter and luciferase reporter (no ERβ line named)
T2 sequence (Q92731 whole entry): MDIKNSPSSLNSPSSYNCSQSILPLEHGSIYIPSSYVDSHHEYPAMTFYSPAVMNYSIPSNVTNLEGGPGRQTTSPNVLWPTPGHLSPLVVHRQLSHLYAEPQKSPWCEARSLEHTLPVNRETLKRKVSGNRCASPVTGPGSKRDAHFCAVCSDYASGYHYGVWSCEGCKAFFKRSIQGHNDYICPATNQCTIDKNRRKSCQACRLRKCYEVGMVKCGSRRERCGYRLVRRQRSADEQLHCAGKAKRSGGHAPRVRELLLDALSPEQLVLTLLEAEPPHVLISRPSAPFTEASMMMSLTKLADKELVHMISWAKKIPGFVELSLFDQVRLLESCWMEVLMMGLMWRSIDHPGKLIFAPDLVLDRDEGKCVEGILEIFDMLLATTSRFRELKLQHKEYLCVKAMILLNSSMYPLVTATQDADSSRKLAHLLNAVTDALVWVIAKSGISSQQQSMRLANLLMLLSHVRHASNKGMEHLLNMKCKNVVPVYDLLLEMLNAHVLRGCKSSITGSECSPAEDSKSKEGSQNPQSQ
Protocol: as §5

[4] = molecular target: T2, human estrogen β receptor (hERβ); test: transactivation assay in recombinant CHO cells (rat oxytocin promoter, luciferase reporter), β; assay type: cell-based; conditions: potency ratio, in percentage of the action of the reference compound in the assay
Protocol: as §1, §2, §3, §4

Row | Structure (SMILES) | α-transactivation [1] [percentage] | α-binding. [2] | β-binding [3] [percentage] | β-transactivation [4] [percentage]
1 | C#C[C@]1(O)CCC2C3CCC4=C(CC[C@@H](O)C4)C3[C@@H](CC=C)C[C@@]21C (stereo partly drawn) [Compound 11, (3α,11β,17β)-11-(2-propenyl)-19-norpregn-5(10)-en-20-yne-3,17-diol] | 58 | 57 percentage | 1.1 | 0.8
2 | C#C[C@]1(O)CCC2C3CC[C@H]4C[C@@H](O)CCC4C3[C@@H](C(F)F)C[C@@]21C (stereo partly drawn) [Compound 21, (3β,5α,11β,17β)-11-difluoromethyl-19-norpregn-20-yne-3,17-diol] | 7.7 | 8.6 percentage | 0.2 | 0.1
3 | C#C[C@]1(O)CCC2C3CC[C@H]4C[C@@H](O)CCC4C3[C@@H](CCF)C[C@@]21C (stereo partly drawn) [Compound 31, (3β,5α,11β,17β)-11-(2-fluoroethyl)-19-norpregn-20-yne-3,17-diol] | 9.6 | 37 percentage | 0.1 | 0.2
4 | C#C[C@]1(O)CCC2C3CC[C@H]4C[C@H](O)CCC4C3[C@@H](CCF)C[C@@]21C (stereo partly drawn) [Compound 32, (3α,5α,11β,17β)-11-(2-fluoroethyl)-19-norpregn-20-yne-3,17-diol] | 2.4 | 2,6 percentage | <0.1 | 0.1
5 | C#C[C@]1(O)CCC2C3CCC4=C(CC[C@@H](O)C4)C3[C@@H](CCC=C)C[C@@]21C (stereo partly drawn) [Compound 42, (3α,11β,17β)-11-(3-butenyl)-I9-norpregn-5(10)-en-20-yne-3,17-diol] | 2 | 29 percentage | 0.1 | <0.04
6 | C#C[C@]1(O)CCC2C3CCC4=C(CC[C@H](O)C4)C3[C@@H](CCC=C)C[C@@]21C (stereo partly drawn) [Compound 43, (3β,11β,17β)-11-(3-butenyl)-19-norpregn-5(10)-en-20-yne-3,17-diol] | 1.3 | 11.9 percentage | 0.1 | <0.1
7 | C#C[C@]1(O)CCC2C3C(C4=C(C[C@@H](O)CC4)C[C@H]3C)[C@@H](CCF)C[C@@]21C (stereo partly drawn) [Compound 54, (3β,7α,11β,17β)-11-(2-fluoroethyl)-7-methyl-19-norpregn-5(10)-en-20-yne-3,17-diol] | 29.7 | 27,5 percentage | 0.1 | 1.0
8 | C#C[C@]1(O)CCC2C3C(C4=C(C[C@H](O)CC4)C[C@H]3C)[C@@H](CCF)C[C@@]21C (stereo partly drawn) [Compound 55, (3α,7α,11β,17β)-11-(2-fluoroethyl)-7-methyl-19-norpregn-5(10)-en-20-yne-3,17-diol] | 61.5 | 36 percentage | 0.1 | 1.9
9 | C#C[C@]1(O)[C@H](C)CC2C3C(C(=C)C[C@@]21C)C1CC[C@H](O)C[C@@H]1C[C@H]3C (stereo partly shown) [Compound 81] | 27 | – | – | 0.1
